Results: patent publication US4321384A, “Antihypertensive agents” (American Home Products Corporation, priority 1981, dated 1982)
Counter-ions that a name gives are not always drawn.

Experiments:
rabbit aortic strips [1] = assay: Ca+2 antagonism: relaxation of potassium-contracted rabbit aortic strips; assay type: cell-based; settings: Oryctolagus cuniculus; 10^-5 M bath concentration; strips contracted with 100 millimoles potassium ion; read-out: percent relaxation (P.R.)
Procedure: After a stable active tension has developed in the strip, as measured by Statham UC-2 force transducers and recorded on an eight channel Beckman Dynograph Polygraphic Recorder, an amount of the antagonist was added to the organ bath to make a 10^-5 molar concentration of antagonist. The […] effect, expressed as percent relaxation, was taken from the mean of at least two experiments. […] A Ca^+2 antagonist producing a 20 percent relaxation of aortic tissue in this test procedure at a 10^-5 molar bath concentration of the antagonist, generally produces a significant reduction in blood pressure when a sufficient amount is given to the spontaneously hypertensive rat. The following examples illustrate the preparation of a representative number of compounds of this invention. After each example, the Ca^+2 antagonist activity of the compound is presented in terms of percent relaxation (P.R.) at the stated concentration. Similarly, the antihypertensive activity is reported in terms of millimeters mercury (mmHg) blood pressure (B.P.) reduction at the stated time post 50 mg/kg oral dosing.

rabbit aortic strips [2] = assay: as above; assay type: cell-based; settings: Oryctolagus cuniculus; 10^-6 M bath concentration; strips contracted with 100 millimoles potassium ion; read-out: percent relaxation (P.R.)
[3] = tested on: spontaneously hypertensive rats; assay: Systolic blood pressure lowering in spontaneously hypertensive rats; assay type: in vivo, rat
Procedure: The in vivo blood pressure lowering ability of the compounds of this invention was established by measuring the systolic pressure of spontaneously hypertensive rats with a Decker Caudal Plethysmograph or similar sensor device. The compound being tested is administered to groups of four rats and their blood pressure is read prior to compound administration and at 1.5 and 4 hours after compound administration. Depending upon the behavior of the compound being tested, the schedule of blood pressure readings and route of administration is modified. Initially the compounds are administered orally but where compound solubility is a factor, the compounds may be administered parenterally (i.e. i.p., i.m., s.c., i.v., etc.) as desired. The compounds of this invention were initially administered orally at a standard testing dose of 50 mg/kg.
The following examples illustrate the preparation of a representative number of compounds of this invention. After each example, the Ca^+2 antagonist activity of the compound is presented in terms of percent relaxation (P.R.) at the stated concentration. Similarly, the antihypertensive activity is reported in terms of millimeters mercury (mmHg) blood pressure (B.P.) reduction at the stated time post 50 mg/kg oral dosing.

[4] = 1.5 hours post 50 mg/kg oral dosing
[5] = 4 hours post 50 mg/kg oral dosing

SMILES	inhibition at 10 µM (rabbit aortic strips [1]) [%]	inhibition at 1 µM (rabbit aortic strips [2]) [%]	blood pressure (B.P.) reduction [3, 4] [mmHg]	blood pressure (B.P.) reduction [3, 5] [mmHg]
COC(=O)C1=C(C)NC2=C(C(=O)CN(C)C2)C1c1cc(C)ccc1C (centres unmarked) [Example 11, 4-(2,5-Dimethylphenyl)-1,4,5,6,7,8-hexahydro-2,7-dimethyl-5-oxo-1,7-naphthyridine-3-carboxylic acid methyl ester]	22			
COC(=O)C1=C(C)NC2=C(C(=O)CN(Cc3ccccc3)C2)C1c1ccccc1C (centres unmarked) [Example 3, 1,4,5,6,7,8-Hexahydro-2-methyl-4-(2-methylphenyl)-5-oxo-7-(phenylmethyl)-1,7-naphthyridine-3-carboxylic acid methyl ester]		90	-23	-41
COC(=O)C1=C(C)NC2=C(C(=O)CNC2)C1c1cccc(C(F)(F)F)c1 (centres unmarked) [Example 14, 1,4,5,6,7,8-Hexahydro-2-methyl-5-oxo-4-[3-(trifluoromethyl)phenyl]-1,7-naphthyridine-3-carboxylic acid methyl ester]	84		-51	-43
COC(=O)C1=C(C)NC2=C(C(=O)CN(C)C2)C1c1ccccc1Cl (centres unmarked) [Example 8, 4-(2-chlorophenyl)-1,4,5,6,7,8-Hexahydro-2,7-dimethyl-5-oxo-1,7-naphthyridine-3-carboxylic acid methyl ester]	28.3		-54	-30
COC(=O)C1=C(C)NC2=C(C(=O)CNC2)C1c1ccccc1F (centres unmarked) [Example 15, 4-(2-Fluorophenyl)-1,4,5,6,7,8-hexahydro-2-methyl-5-oxo-1,7-naphthyridine-3-carboxylic acid methyl ester]	54		-45	
COC(=O)C1=C(C)NC2=C(C(=O)CN(C)C2)C1c1ccccc1[N+](=O)[O-] (centres unmarked) [Example 1, 1,4,5,6,7,8-Hexahydro-2,7-dimethyl-4-(2-nitrophenyl)-5-oxo-1,7-naphthyridine-3-carboxylic acid methyl ester]	14		-27	-21
COC(=O)C1=C(C)NC2=C(C(=O)CN(C)C2)C1c1cccc(C#N)c1 (centres unmarked) [Example 16, 4-(3-Cyanophenyl)-1,4,5,6,7,8-Hexahydro-2,7-dimethyl-5-oxo-1,7-naphthyridine-3-carboxylic acid methyl ester]	66		-53	
COC(=O)C1=C(C)NC2=C(C(=O)CN(C)C2)C1c1ccccc1C(F)(F)F (centres unmarked) [Example 4, 1,4,5,6,7,8-Hexahydro-2,7-dimethyl-5-oxo-4-[2-(trifluoromethyl)-phenyl]-1,7-naphthyridine-3-carboxylic acid methyl ester]	48		-68	-70
COC(=O)C1=C(C)NC2=C(C(=O)CN(Cc3ccccc3)C2)C1c1ccccc1F (centres unmarked) [Example 15 intermediate, 4-(2-fluorophenyl)-1,4,5,6,7,8-hexahydro-2-methyl-5-oxo-7-(phenylmethyl)-1,7-naphthyridine-3-carboxylic acid methyl ester hydrochloride]		48		
COC(=O)C1=C(C)NC2=C(C(=O)CN(Cc3ccccc3)C2)C1c1cccc([N+](=O)[O-])c1 (centres unmarked) [Example 10, 1,4,5,6,7,8-Hexahydro-2-methyl-4-(3-nitrophenyl)-5-oxo-7-(phenylmethyl)-1,7-naphthyridine-3-carboxylic acid methyl ester]		89.7		
CCCCc1ccccc1C1C(C(=O)OC)=C(C)NC2=C1C(=O)CNC2 (centres unmarked) [Example 19, 4-[2-(n-butyl)phenyl]-1,4,5,6,7,8-hexahydro-2-methyl-5-oxo-1,7-naphthyridine-3-carboxylic acid methyl ester]	49.2		-24	
COC(=O)C1=C(C)NC2=C(C(=O)CN(Cc3ccccc3)C2)C1c1cccc(C)c1C (centres unmarked) [Example 20, 4-(2,3-dimethylphenyl)-1,4,5,6,7,8-hexahydro-2-methyl-5-oxo-7-(phenylmethyl)-1,7-naphthyridine-3-carboxylic acid methyl ester]	80.4	33.3	-24	-39
COC(=O)C1=C(C)NC2=C(C(=O)CNC2)C1c1cccc(C)c1C (centres unmarked) [Example 21, 4-(2,3-dimethylphenyl)-1,4,5,6,7,8-hexahydro-2-methyl-5-oxo-1,7-naphthyridine-3carboxylic acid methyl ester]	76.7		-42	-45
COC(=O)C1=C(C)NC2=C(C(=O)CN(Cc3ccccc3)C2)C1c1cccc(C(F)(F)F)c1 (centres unmarked) [Example 14 intermediate, 1,4,5,6,7,8-hexahydro-2-methyl-5-oxo-7-(phenylmethyl)-4-[3-(trifluoromethyl)phenyl]-1,7-naphthyridine-3-carboxylic acid methyl ester hydrochloride]		46.2		
COC(=O)C1=C(C)NC2=C(C(=O)CN(C)C2)C1c1ccccc1C (centres unmarked) [Example 2, 1,4,5,6,7,8-Hexahydro-2,7-dimethyl-4-(2-methylphenyl)-5-oxo-1,7-naphthyridine-3-carboxylic acid methyl ester]	31		-57	-28
CCCCc1ccccc1C1C(C(=O)OC)=C(C)NC2=C1C(=O)CN(Cc1ccccc1)C2 (centres unmarked) [Example 18, 4-[2-(n-butyl)phenyl]-1,4,5,6,7,8-Hexahydro-2-methyl-5-oxo-7-(phenylmethyl)-1,7-naphthyridine-3-carboxylic acid methyl ester]		61		
CC1=C(C(=O)OCCN(C)Cc2ccccc2)C(c2ccccc2C(F)(F)F)C2=C(CN(Cc3ccccc3)CC2=O)N1 (centres unmarked) [Example 22, 1,4,5,6,7,8-Hexahydro-2-methyl-5-oxo-7-phenylmethyl-4-[2-(trifluoromethyl)phenyl]-1,7-naphthyridine-3-carboxylic acid, 2-(N-benzyl-N-methylamino)ethylester]		55.6	-74	-68
COC(=O)C1=C(C)NC2=C(C(=O)CNC2)C1c1ccccc1C(F)(F)F (centres unmarked) [Example 12, 1,4,5,6,7,8-Hexahydro-2-methyl-5-oxo-4-[2-(trifluoromethyl)phenyl]-1,7-naphthyridine-3-carboxylic acid methyl ester]	89.1		-88	
COC(=O)C1=C(C)NC2=C(C(=O)CNC2)C1c1ccccc1C (centres unmarked) [Example 7, 1,4,5,6,7,8-Hexahydro-2-methyl-4-(2-methylphenyl)-5-oxo-1,7-naphthyridine-3-carboxylic acid:methyl ester]	46		-77	-64
COC(=O)C1=C(C)NC2=C(C(=O)CN(C)C2)C1c1cccc(C)c1C (centres unmarked) [Example 17, 4-(2,3-Dimethylphenyl)-1,4,5,6,7,8-hexahydro-2,7-dimethyl-5-oxo-1,7-naphthyridine-3-carboxylic acid methyl ester]	54			-40
COC(=O)C1=C(C)NC2=C(C(=O)CN(Cc3ccccc3)C2)C1c1ccccc1C(F)(F)F (centres unmarked) [Example 5, 1,4,5,6,7,8-Hexahydro-2-methyl-5-oxo-7-(phenylmethyl)-4-[2-(trifluoromethyl)phenyl]-1,7-naphthyridine-3-carboxylic acid methyl ester]		40		
COC(=O)C1=C(C)NC2=C(C(=O)CN(C)C2)C1c1cccc([N+](=O)[O-])c1 (centres unmarked) [Example 6, 1,4,5,6,7,8-Hexahydro-2,7-dimethyl-4-(3-nitrophenyl)-5-oxo-1,7-naphthyridine-3-carboxylic acid methyl ester]	35		-85	-47
COC(=O)C1=C(C)NC2=C(C(=O)CN(C)C2)C1c1c(Cl)cccc1Cl (centres unmarked) [Example 9, 4-(2,6-Dichlorophenyl)-1,4,5,6,7,8-hexahydro-2,7-dimethyl-5-oxo-1,7-naphthyridine-3-carboxylic acid methyl ester]	41.5		-22	-43
